According to PMC10221074, “Functional Profiling of the A-Family of Venom Peptides from the Wolf Spider Lycosa shansia” (Toxins, 2023):

What was measured:
[1] = system: Listeria monocytogenes DSM 20600; assay: Antibacterial growth assay (OD600); settings: OD600, medium = 100, MH II broth, 37 °C, peptide 200 µM mixed 50 µL + 50 µL with bacteria, Figure 7: 48 h
Experimental: (§1) Cryo-conserved cultures of selected bacterial strains (Table 4) were transferred to Tryptic Soy Agar (TSA) plates (Carl Roth) with a sterile inoculation loop, sealed with Parafilm (BEMIS, Neenah, WI, USA), and incubated for 1–2 days at 37 °C depending on growth. Single colonies were picked and transferred into 2–3 mL of the Mueller–Hinton II (MH II) broth (BD, Heidelberg, Germany). The bacteria were cultivated overnight, subcultured on fresh medium and grown for 3–4 h before testing at 37 °C, with shaking at 180 rpm. We measured the optical density at 600 nm (OD600) of 1 mL of the bacterial suspensions in polystyrene cuvettes (SARSTED, Nümbrecht, Germany) using an Ultrospec 10 spectrophotometer (Biochrome, Cambridge, UK). We then diluted them with the MH II medium to the preferred OD600 (Table 2). The peptides were dissolved in DMSO to generate 10 mmol/L stocks and diluted with the MH II medium to 200 µM before the assay. We used 10 µg/mL (~40 µg/mL for S. epidermidis) gentamicin and colistin (Sigma-Aldrich, Taufkirchen, Germany), DMSO and the medium only as controls. The bacteria were transferred to 96-multiwell plates with a final volume of 100 µL per well (50 µL bacterial suspension, and 50 µL test peptide). The OD600 was measured at 0, 24 and 48 h using a BioTek Eon microplate reader followed by analysis with Gen5 v2.09.

[2] = system: Staphylococcus epidermidis DSM 28319; assay: Antibacterial growth assay (OD600)
[3] = system: Micrococcus luteus DSM 20030; assay: Antibacterial growth assay (OD600); settings: OD600, medium = 100, MH II broth, 37 °C, peptide 200 µM mixed 50 µL + 50 µL with bacteria, Figure 7: 48 h
Experimental: as §1

[4] = system: A/Hamburg/05/2009 (H1N1); type: cell-based, influenza virus
[5] = system: G. mellonella larvae; assay: Insecticidal activity by injection into larvae; type: in vivo, Galleria mellonella; settings: 50 ng peptide injected, 3 cohorts of 10 larvae, survival monitored for 5 days
Experimental: Insecticidal activity was determined using fourth and fifth instar G. mellonella larvae (L4/L5) obtained from Fauna Topics Zoobedarf Zucht und Handels GmbH (Marbach am Neckar, Germany). Because spider venom is injected via chelicerae, we opted for an injection-based assay to reflect the natural process of envenomation as described earlier. The peptides were dissolved in a 1:1 mixture of DMSO and water to a final concentration of 10 mmol/L. We injected 50 ng of each peptide into the pseudopodium using Omnican-F, 0.30 × 12 mm/G 30 × 1/2”, a 1 mL syringe adjusted to a WPI manual microsyringe injector setup. Injections with water, DMSO/water (1:1) and ethanol (90%) were used as controls, alongside untreated specimens. Insecticidal activity screenings were performed in cohorts of 10 larvae with 3 replicates (30 specimens per treatment or control). […] Survival was monitored every 24 h for 5 days. Mortality was calculated based on the ratio of dead to injected specimens.

[6] = system: A/Hessen/1/2003 (H3N2); type: cell-based, influenza virus
[7] = system: Pseudomonas aeruginosa DSM 1117; assay: Antibacterial growth assay (OD600); settings: OD600, medium = 100, MH II broth, 37 °C, peptide 200 µM mixed 50 µL + 50 µL with bacteria, Figure 7: 48 h
[8] = system: Pseudomonas aeruginosa DSM 50071; assay: Antibacterial growth assay (OD600); settings: OD600, medium = 100, MH II broth, 37 °C, peptide 200 µM mixed 50 µL + 50 µL with bacteria, Figure 7: 48 h
[9] = system: Staphylococcus aureus DSM 2569; assay: Antibacterial growth assay (OD600)
[10] = system: Escherichia coli BL21(DE3); assay: Antibacterial growth assay (OD600); settings: OD600, medium = 100, MH II broth, 37 °C, peptide 200 µM mixed 50 µL + 50 µL with bacteria, Figure 7: 48 h
[11] = system: B/Malaysia/2506/2004 (B-Mal); type: cell-based, influenza virus
[12] = OD600, medium = 100, MH II broth, 37 °C, peptide 200 µM mixed 50 µL + 50 µL with bacteria, Figure 7: 48 h, replicate column 1
[13] = OD600, medium = 100, MH II broth, 37 °C, peptide 200 µM mixed 50 µL + 50 µL with bacteria, Figure 7: 48 h, replicate column 2
[14] = OD600, medium = 100, MH II broth, 37 °C, peptide 200 µM mixed 50 µL + 50 µL with bacteria, Figure 7: 48 h, replicate column 3

Sequence: SLLGLLDVVKSKIGQTGLL [LS-AMP-A13]
- Bacterial growth relative to medium, L. monocytogenes, replicate 1 ([1]; replicate column 1): 131.861
- Bacterial growth relative to medium, L. monocytogenes, replicate 2 ([1]; replicate column 2): 134.66
- Bacterial growth relative to medium, L. monocytogenes, replicate 3 ([1]; replicate column 3): 121.808
- Bacterial growth relative to medium, S. epidermidis, replicate 1 [2, 12]: 109.035
- Bacterial growth relative to medium, S. epidermidis, replicate 2 [2, 13]: 130.725
- Bacterial growth relative to medium, S. epidermidis, replicate 3 [2, 14]: 108.734
- Antibacterial activity (in words) ([2]; S. epidermidis DSM 28319, growth after 48 h): limited activity
- Bacterial growth relative to medium, M. luteus, replicate 1 ([3]; replicate column 1): 108.132
- Bacterial growth relative to medium, M. luteus, replicate 2 ([3]; replicate column 2): 162.387
- Bacterial growth relative to medium, M. luteus, replicate 3 ([3]; replicate column 3): 79.7227
- Viability of infected cells relative to aprotinin, Replicate 1 [4]: 0.06606
- Viability of infected cells relative to aprotinin, Replicate 2 [4]: 0.03634
- Viability of infected cells relative to aprotinin, Replicate 3 [4]: 0.07331
- Insecticidal effect on larvae (in words) [5]: Individual dead insects
- Viability of infected cells relative to aprotinin, Replicate 1 [6]: 0.1762
- Viability of infected cells relative to aprotinin, Replicate 2 [6]: 0.09602
- Viability of infected cells relative to aprotinin, Replicate 3 [6]: 0.1319
- Bacterial growth relative to medium, P. aeruginosa (1117), replicate 1 ([7]; replicate column 1): 81.1135
- Bacterial growth relative to medium, P. aeruginosa (1117), replicate 2 ([7]; replicate column 2): 69.8921
- Bacterial growth relative to medium, P. aeruginosa (1117), replicate 3 ([7]; replicate column 3): 76.1614
- Bacterial growth relative to medium, P. aeruginosa (50071), replicate 1 ([8]; replicate column 1): 102.39
- Bacterial growth relative to medium, P. aeruginosa (50071), replicate 2 ([8]; replicate column 2): 115.883
- Bacterial growth relative to medium, P. aeruginosa (50071), replicate 3 ([8]; replicate column 3): 93.6736
- Bacterial growth relative to medium, S. aureus, replicate 1 [9, 12]: 71.9833
- Bacterial growth relative to medium, S. aureus, replicate 2 [9, 13]: 81.2949
- Bacterial growth relative to medium, S. aureus, replicate 3 [9, 14]: 106.322
- Antibacterial activity (in words) ([9]; S. aureus DSM 2569, growth after 48 h): limited activity
- Bacterial growth relative to medium, E. coli, replicate 1 ([10]; replicate column 1): 109.532
- Bacterial growth relative to medium, E. coli, replicate 2 ([10]; replicate column 2): 109.096
- Bacterial growth relative to medium, E. coli, replicate 3 ([10]; replicate column 3): 112.001
- Viability of infected cells relative to aprotinin, Replicate 1 [11]: 0.08268
- Viability of infected cells relative to aprotinin, Replicate 2 [11]: 0.06182
- Viability of infected cells relative to aprotinin, Replicate 3 [11]: 0.0661
